Reference: a melting point compilation (Tetko et al.; mined from patent text by program, amines drawn as free bases though some values may be those of a salt)

With `CCOc1cc2cc(CO)nc(-c3ccnc(-n4nc(-c5cc(OC)c(OC)c(OC)c5)c5sccc5c4=O)c3)c2cc1OCC` as the compound, how does the melting point read?
The melting point was 250 to 251 °C.

For `CCCCc1nc2c(N)nc3ccccc3c2n1CCCCNS(C)(=O)=O`, which melting point is on record?
The melting point was 195 to 196 °C.

Which melting point does the source give for `Cl[Si](Cl)(Cl)Cc1ccc(-c2ccccc2)cc1` here?
The melting point was 60 to 65 °C.

For `Fc1ccc(-c2nc(CI)co2)cc1`, which melting point is on record?
Its melting point is 100 to 102 °C.

For `CN(C)S(=O)(=O)CCc1ccc2[nH]cc(CC#N)c2c1`, which melting point is on record?
The melting point was 105 to 107 °C.

Which melting point does the source give for `Fc1ccc(C(Cl)(Cn2cncn2)C(F)(F)F)c(F)c1` (stereo not drawn) here?
The melting point was 87 to 88 °C.

Which melting point does the source give for `CCOC(=O)c1cccc(-c2c(C)c(NC(=O)CC(C)(C)C)c(C)c3c2OCC3c2ccc(C(C)C)cc2)c1` (stereo not drawn) here?
The melting point was 175 to 177 °C.

With `CC(C)C1C(=O)N(c2ccc(N=Nc3ccc(N(C)C)cc3)cc2)C(=S)N1C` (stereo not drawn) as the compound, how does the melting point read?
The melting point was 164 to 169 °C.

With `O=C1C(=O)c2ccccc2C2=C1SCC1(CCCN(C(=O)c3cccc(Cl)c3)CC1)O2` (stereo not drawn) as the compound, how does the melting point read?
The melting point was 98 to 100 °C.

Which melting point does the source give for `CC(C)c1ccccc1NC(=N)Nc1cccc2ccccc12` here?
The melting point was 175 to 177 °C.

Which melting point does the source give for `O=c1nc(-c2c(-c3ccccc3)nn3ccccc23)cc[nH]1` here?
The melting point was 287 to 289 °C.

For `CC(C)(C)CC(C)(C)C(CCC(=O)O)CC(=O)O` (stereo not drawn), which melting point is on record?
The melting point was 135 to 137 °C.

With `CN(CCO)S(=O)(=O)c1cc(NC(=O)c2cnn3c(C(F)(F)F)cc(-c4ccc(C(F)(F)F)cc4)nc23)c(Cl)s1` as the compound, how does the melting point read?
Its melting point is 221 °C.

For `NS(=O)(=O)c1cccc(-c2cn(-c3nc(-c4ccc(C(F)(F)F)nc4)cc(C(F)F)n3)cn2)c1`, which melting point is on record?
The melting point was 220 °C.

For `CC(=O)NNC(=O)c1ccncc1`, which melting point is on record?
The melting point was 158 to 160 °C.

For `CSCc1cnc2c(NC(=O)c3c(Cl)cccc3Cl)cccc2c1Cl`, which melting point is on record?
Its melting point is 173 to 175 °C.

With `CCc1ccccc1Sc1c(O)cc(-c2ccccc2)oc1=O` as the compound, how does the melting point read?
The melting point was 190 to 192 °C.

Which melting point does the source give for `O=C1CCC(N2Cc3c(OCc4ccc5ccccc5n4)cccc3C2=O)C(=O)N1` (stereo not drawn) here?
The melting point was 269 to 271 °C.

For `O=c1[nH]cnc2c1ncn2[C@@H]1C[C@H](O)[C@@H](O)[C@H]1O` (racemic), which melting point is on record?
The melting point was 198 to 201 °C.

For `CCOc1nn(-c2ccc(C(F)(F)F)cn2)cc1CCCOc1nn(C)cc1CC(=O)O`, which melting point is on record?
Its melting point is 115 to 116 °C.

Which melting point does the source give for `CC(C)n1ccnc1S(=O)(=O)c1ccc(O)cc1` here?
Its melting point is 152 to 153 °C.

Which melting point does the source give for `O=c1[nH]c2ccccc2n1CCCN1CCNCC1` here?
The melting point was 158 °C.

With `O=C(O)COc1cccc2c1CCC(n1nc(-c3c(-c4ccccc4)nn4ccccc34)ccc1=O)C2=O` (stereo not drawn) as the compound, how does the melting point read?
The melting point was 225 to 227 °C.

For `CC(=O)C1CCC2C3CCC4CC(OC(=O)C(F)(F)F)CCC4(C)C3C(=O)CC12C` (stereo not drawn), which melting point is on record?
The melting point was 107 to 108 °C.

With `COc1ccc(/C=C/C(=O)N2CC(CCl)c3c2cc([N+](=O)[O-])c2cc(S(=O)(=O)NCCO)ccc32)cc1` (stereo not drawn) as the compound, how does the melting point read?
The melting point was 250 to 251 °C.

With `CC1(C)Oc2ccc(C#N)cc2[C@@H](n2ncccc2=O)[C@@H]1O` (relative stereo) as the compound, how does the melting point read?
The melting point was 211 to 215 °C.

With `COc1ccncc1-c1cccc(OC2SCC(O)C(O)C2O)c1` (stereo not drawn) as the compound, how does the melting point read?
Its melting point is 195 °C.

For `O=C(c1ccc(O)cc1)c1ccc([N+](=O)[O-])cc1`, which melting point is on record?
Its melting point is 196 °C.

For `CCCCCCCCCCOc1cccc(Nc2nnc(Cc3ccncc3)c3ccccc23)c1`, which melting point is on record?
The melting point was 116 to 119 °C.

Which melting point does the source give for `CC(C)(C)OC(=O)N[C@H]1CN(N=C(c2ccccc2)c2ccccc2)C1=O` here?
The melting point was 167 to 170 °C.

With `O=C(Nc1ccc(C(=O)N2Cc3ccccc3Cc3ccccc32)cc1)c1ccc(Cl)cc1Cl` as the compound, how does the melting point read?
The melting point was 212 to 215 °C.

Which melting point does the source give for `NC(=O)c1ccc(CCCOCCCCCCBr)cc1` here?
Its melting point is 79 to 82 °C.

For `c1ccc(Cn2nc(-c3ccco3)c3cncnc32)cc1`, which melting point is on record?
Its melting point is 106 °C.

With `CC1(C)C(=O)N(Cc2ccccc2)C(=O)N1CC#CI` as the compound, how does the melting point read?
Its melting point is 83 to 85 °C.

For `COc1nc(C)cnc1NS(=O)(=O)c1cccnc1-c1ccc(N(C)C)cc1`, which melting point is on record?
Its melting point is 183 to 184 °C.

With `CCNC1=NS(=O)(=O)c2sc(Cl)cc2N1` as the compound, how does the melting point read?
Its melting point is 271 to 274 °C.

For `CCc1cc(-c2ccc(F)cc2)c(O)cc1OCCCCCC(c1ccc(OCC(=O)O)cc1)c1nnn[nH]1` (stereo not drawn), which melting point is on record?
The melting point was 102 to 104 °C.

Which melting point does the source give for `O=C(O)CCC12CCCn3c1c(c1ccccc13)CCO2` (stereo not drawn) here?
The melting point was 153 to 155 °C.
